From publication PMC13168289, “Potent acridone antimalarial against all three life stages of Plasmodium” (Nature Communications, 2026)

Assays:
[1] = host hepatocyte viability in the P. cynomolgi assay; assay type: cell-based, rhesus; details: rhesus monkey; radical cure mode; read-out: cytotoxicity CC50
Method: The liver-stage P. cynomolgi assay was designed to identify anti-hypnozoite drugs utilizing a 384-well in vitro culture system[31],[37]. Briefly, cryopreserved primary simian hepatocytes (donor lots XGB, OQB, and QHO: BioIVT, Inc.) were seeded in collagen-coated 384-well plates and infected with P. cynomolgi bastianellii (B strain) sporozoites dissected from infected Anopheles dirus mosquitoes. Test compounds were solubilized in 100% DMSO and serially diluted 2-fold to generate up to a 12-point dose-response curve, maintaining a final DMSO concentration of 0.1% across all wells. Two distinct treatment modes were evaluated. For the prophylactic assay, to assess the prevention of infection, compound exposure began 1-hour post-infection with daily media changes on Days 1 and 2. For the radical cure assay, to assess activity against established liver forms, drugs were administered daily from Day 4 through Day 7 post-infection. […] For readout on Day 8, plates were fixed and stained via immunofluorescence to visualize parasite forms (hypnozoites and schizonts) and hepatocyte nuclei, and images were acquired using an Operetta CLS high-content imaging system (PerkinElmer). Host hepatocyte viability was measured in parallel to determine compound toxicity. Parasite forms were automatically quantified using Harmony 4.9 software, and percent inhibition and toxicity were calculated relative to in-plate DMSO vehicle controls. IC50 and CC50 (half-maximal cytotoxic concentrations) were determined by fitting dose-response data to a four-parameter logistic (variable slope) model using a custom Python script incorporating a grid search algorithm.

[2] = cited from earlier work
[3] = system: P. falciparum NF54 gametocytes; assay: sexual blood-stage gametocyte assay; assay type: cell-based, Plasmodium falciparum; details: Days 5 to 7, read Day 14
Method: P. falciparum NF54 was used to generate gametocytes. The erythrocytic stage of the parasite was cultured following standard laboratory protocols. Gametocyte production was carried out as described by Miura et al[34]. […] Cultures were maintained in washed human O^+ red blood cells at a final hematocrit of 2%[76]. For gametocyte cultures, parasites were induced using serum-free human media. Gametocyte cultures were maintained in washed human O^+ red blood cells at a final hematocrit of 5%. […] All cultures were maintained at 37 °C in a Billups chamber under a gas mixture of 90% N2, 5% CO2, and 5% O2, with media changes daily. […] DMSO diluted in gametocyte media was used as the control. […] Gametocytemia was assessed on Day 14 post-induction using blood smears stained with the Hema 3^TM Manual Staining System (Fisher) and analyzed by light microscopy.

[4] = system: luciferase-expressing P. berghei sporozoites; assay: liver-stage prophylaxis murine model with IVIS bioluminescence imaging; assay type: in vivo, P. berghei in Albino C57BL/6 mice; details: Days -1, 0, 1
Source text: Four- to six-week-old female inbred Albino C57BL/6 mice (18–22 g, Jackson Laboratories, Bar Harbor, ME, USA) were utilized. Animals were assigned unique study numbers via ear tags and cage cards and were randomly assigned to treatment or control groups (n = 5 per group) using a weigh-stratified randomization procedure. All animals were quarantined and acclimatized for 7 days prior to study initiation and were housed in a 12:12 light/dark cycle with food and water provided ad libitum. Mice were infected intravenously with 10^4 luciferase-expressing P. berghei sporozoites (ANKA strain) via tail vein injection on Day 0. Drugs were dissolved in PEG-400 and administered orally once per day on Day -1, Day 0, and Day 1. […] Infection reduction was assessed by comparing the bioluminescence signals emitted by treated groups with signals emitted by the vehicle control-treated group at that time point. Later blood-stage parasitemia was determined via flow cytometry. […] Long-term blood-stage efficacy was evaluated starting on Day 6 post-infection and continued for up to 31 days using flow cytometry.
In vivo antimalarial efficacy studies were performed as described above.

[5] = system: normal and G6PD-deficient RBCs; assay: eryptosis assay (annexin-V binding, ROS, forward scatter); assay type: cell-based, human; details: 48 h incubation
Method: In vitro evaluation of eryptosis as a marker for induced hemolytic toxicity was performed using de-identified human blood samples obtained from the Clinical Trial Center at WRAIR, using established methods[55],[81],[82]. Fresh Li-heparin-anticoagulated blood samples was centrifuged and the platelet and leukocyte-containing supernatant was removed. […] Flow cytometry was employed to estimate stimulators of eryptosis: phosphatidylserine exposure at the cell surface from annexin-V-binding, reactive oxygen species (ROS) formation from 2′,7′-dichlorodihydrofluorescein diacetate (DCFDA) dependent fluorescence, and cell volume from forward scatter. […]
After incubation under the respective experimental condition, cell suspension was washed in Ringer solution containing CaCl2 and then stained with Annexin-V-FITC at 37 °C for 15 min under protection from light. The annexin-V-abundance at the erythrocyte surface was subsequently determined on a FACS Calibur. Annexin-V-binding was measured at an excitation wavelength of 488 nm and an emission wavelength of 530 nm. […]
Oxidative stress was determined utilizing DCFDA. […] The DCFDA-loaded erythrocytes were resuspended in Ringer solution and ROS-dependent fluorescence intensity was measured at an excitation wavelength of 488 nm and an emission wavelength of 530 nm on a FACS Calibur. Subsequently, the geomean of the DCFDA dependent fluorescence was determined. […]

In the case of `O=C1C(O)=C([C@H]2CC[C@H](c3ccc(Cl)cc3)CC2)C(=O)c2ccccc21` [ATV, atovaquone], the CC50 at 4 days [1] is listed as 3.96 µM, the T1/2 ([2]; healthy mice, ref PMID: 23292347) is listed as “about 13 h” and the t1/2 ([2]; mice plasma) is listed as ~ 13 h.

For `O=c1c2ccc(Oc3ccc(OC(F)(F)F)cc3)cc2[nH]c2cc(Cl)cc(F)c12` [T111], the “inhibition of formation of stage V gametocytes” value ([3]; 1 µM) was 75%, the “inhibition of formation of stage V gametocytes” value ([3]; 10 µM) was 93% and the “protection from liver-stage infection” value ([4]; 1 mg/kg/day oral) was “did not clear liver-stage infection”. For the same compound, the “protection from liver-stage infection” value ([4]; 4 mg/kg/day oral) was “did not clear liver-stage infection”, the “protection from liver-stage infection” value ([4]; 10 mg/kg/day oral) was “full protection” and the “eryptosis as marker of hemolytic toxicity” value [5] was “did not show the toxicity seen with TQ”.
